These results are taken from PMC2874416 (Beilstein Journal of Organic Chemistry, 2010).

Each structure is given as a SMILES string. Read-outs that look alike come from different tables or passages of the source.

The target of test [1] is T1, human lysosomal β-galactosidase (Homo sapiens, UniProt P16278).
T1 sequence (P16278 29-677): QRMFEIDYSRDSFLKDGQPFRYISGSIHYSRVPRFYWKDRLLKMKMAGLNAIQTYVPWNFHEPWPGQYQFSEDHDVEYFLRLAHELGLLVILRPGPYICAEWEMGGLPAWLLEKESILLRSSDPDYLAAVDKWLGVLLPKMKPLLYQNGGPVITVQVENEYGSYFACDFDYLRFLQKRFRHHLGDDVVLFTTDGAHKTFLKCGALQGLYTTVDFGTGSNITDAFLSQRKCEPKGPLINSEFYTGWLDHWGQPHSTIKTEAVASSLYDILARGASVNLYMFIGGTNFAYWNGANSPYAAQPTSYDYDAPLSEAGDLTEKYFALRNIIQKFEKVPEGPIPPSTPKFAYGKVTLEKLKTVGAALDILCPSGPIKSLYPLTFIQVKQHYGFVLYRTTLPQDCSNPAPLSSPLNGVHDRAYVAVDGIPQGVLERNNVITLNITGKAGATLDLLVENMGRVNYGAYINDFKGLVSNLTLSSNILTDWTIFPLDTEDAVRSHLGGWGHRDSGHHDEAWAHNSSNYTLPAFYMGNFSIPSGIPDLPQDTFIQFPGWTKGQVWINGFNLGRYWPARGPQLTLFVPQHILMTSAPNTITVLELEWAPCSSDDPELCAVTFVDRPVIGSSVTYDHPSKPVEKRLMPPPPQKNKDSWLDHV
Kind of test: Inhibition of human lysosomal β-galactosidase. Type of test: biochemical.

For test [2], the target named is T2, E. coli β-galactosidase (Escherichia coli, UniProt P00722).
T2 construct: purchased Sigma Chemicals
Kind of test: Inhibition of E. coli β-galactosidase, Ki by kinetic studies. Type of test: biochemical. On the procedure:
E. coli β-galactosidase was purchased from Sigma Chemicals. Kinetic studies were performed at 37°C in 100 mM sodium phosphate buffer, pH 7.0 containing 0.1% serum albumin. Rates of reaction were determined as a function of both varying substrate and inhibitor concentration over the concentration ranges indicated below.
Data obtained were analysed using a nonlinear regression analysis program GraFit, p-nitrogalactopyranoside (Km = 0.03 mM), 0.045 – 0.3 mM). […]

The target of test [3] is T3, green coffee bean α-galactosidase (Coffea arabica, UniProt Q42656).
T3 construct: made in house
Kind of test: Inhibition of green coffee bean α-galactosidase, Ki by kinetic studies. Type of test: biochemical. The following applies: 37 °C, pH 6.5, substrate PNP-Gal; read-out: Ki α-gal GCB. On the procedure: Green coffee bean α-galactosidase was purified and assayed as described.
Kinetic studies were performed at 37°C in 50 mM sodium phosphate buffer, pH 6.5 containing 0.1% serum albumin. Reactions were initiated by the addition of enzyme (final concentration = 0.3 µg/mL), bringing the total volume to 200µL. Reaction rates were measured by monitoring the release of p-nitrophenolate (λ = 400 nm, ε = […]) from PNP-Gal by means of a UNICAM 8700 UV-Vis spectrophotometer equipped with a circulating water bath. Inhibition studies were performed by varying […]
concentrations of both PNP-Gal and inhibitor. Ki values were calculated by direct fit of the initial rates to the equation below using Grafit. […]

In test [4] the target is T4, Agrobacterium sp. β-glucosidase/galactosidase (Agrobacterium sp., UniProt P12614).
T4 construct: made in house
T4 sequence (P12614 1-459): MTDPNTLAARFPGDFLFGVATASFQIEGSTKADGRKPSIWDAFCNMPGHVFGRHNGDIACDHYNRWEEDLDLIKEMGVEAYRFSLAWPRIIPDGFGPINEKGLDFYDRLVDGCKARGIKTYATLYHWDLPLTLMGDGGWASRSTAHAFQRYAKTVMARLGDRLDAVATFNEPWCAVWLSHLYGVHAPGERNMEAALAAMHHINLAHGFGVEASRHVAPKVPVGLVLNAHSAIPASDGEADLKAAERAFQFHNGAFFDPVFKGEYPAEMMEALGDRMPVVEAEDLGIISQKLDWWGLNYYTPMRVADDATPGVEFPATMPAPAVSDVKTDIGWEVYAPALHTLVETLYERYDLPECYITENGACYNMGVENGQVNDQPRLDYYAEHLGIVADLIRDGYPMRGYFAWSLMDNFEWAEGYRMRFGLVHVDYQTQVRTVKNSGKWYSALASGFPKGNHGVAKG
Briefly: Inhibition of Agrobacterium sp. β-glucosidase/galactosidase (Abg), Ki by kinetic studies. Type of test: biochemical. Here is the method: glycosidase was purified and assayed as described. Kinetic studies were performed at 37 °C in pH 7.0 sodium phosphate buffer (50 mM) containing 0.1 % bovine serum albumin, using 7.2 x 10-5 mg/mL enzyme. Approximate values of Ki were determined using a fixed concentration of substrate, 4-nitrophenyl β-D- […]
times to 5 times the Ki value ultimately determined. A horizontal line drawn through […]
an inhibitor concentration equal to -Ki. Full Ki determinations where required, were performed using the same range of inhibitor concentrations while also varying substrate (4-nitrophenyl glucoside) concentrations from approximately 0.015 mM to 0.6 mM. Data were analysed by direct fit to the Michaelis Menten equation describing reaction in the presence of inhibitors using the program GraFit. […]

The test system of test [5] is β-galactosidase. Also noted: method as in PMID 19812739. The following applies: GM1-gangliosidosis model mice, orally administered; cited from earlier work.
For test [6], the system named is β-galactosidase mutant feline fibroblast cell line. Kind of test: Chemical chaperone activity in β-galactosidase mutant feline fibroblast cell line. It counts as cell-based. The following applies: preliminary; for increase of enzyme activity of β-galactosidase mutant: concentration 100 µM.
For test [7], the system named is tissue globotriaosylceramide levels. Also noted: method as in PMID 19773742. The following applies: mouse model; cited from earlier work.
The subject of test [8] is α-galactosidase A. Also noted: method as in PMID 17894781, PMID 18381081, PMID 19387866, PMID 19287194. The following applies: cultured Fabry patient cell lines, incubation for five days, 49 missense mutant forms; cited from earlier work.
The mark [9] stands for this setting: 37 °C, pH 7.0, read-out: Ki β-gal E. coli.

T3 sequence (Q42656 16-378): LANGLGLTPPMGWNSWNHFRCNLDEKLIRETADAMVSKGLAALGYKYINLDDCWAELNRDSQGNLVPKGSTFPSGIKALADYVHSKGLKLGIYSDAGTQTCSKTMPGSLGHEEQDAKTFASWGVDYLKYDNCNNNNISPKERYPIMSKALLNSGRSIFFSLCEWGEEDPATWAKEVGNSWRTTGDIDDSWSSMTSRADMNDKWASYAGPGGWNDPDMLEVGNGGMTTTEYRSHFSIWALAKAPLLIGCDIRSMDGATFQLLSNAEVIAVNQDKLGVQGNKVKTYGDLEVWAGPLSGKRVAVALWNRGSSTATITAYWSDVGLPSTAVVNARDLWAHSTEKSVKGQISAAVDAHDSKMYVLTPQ
T2 sequence (P00722 2-1024 limits assumed): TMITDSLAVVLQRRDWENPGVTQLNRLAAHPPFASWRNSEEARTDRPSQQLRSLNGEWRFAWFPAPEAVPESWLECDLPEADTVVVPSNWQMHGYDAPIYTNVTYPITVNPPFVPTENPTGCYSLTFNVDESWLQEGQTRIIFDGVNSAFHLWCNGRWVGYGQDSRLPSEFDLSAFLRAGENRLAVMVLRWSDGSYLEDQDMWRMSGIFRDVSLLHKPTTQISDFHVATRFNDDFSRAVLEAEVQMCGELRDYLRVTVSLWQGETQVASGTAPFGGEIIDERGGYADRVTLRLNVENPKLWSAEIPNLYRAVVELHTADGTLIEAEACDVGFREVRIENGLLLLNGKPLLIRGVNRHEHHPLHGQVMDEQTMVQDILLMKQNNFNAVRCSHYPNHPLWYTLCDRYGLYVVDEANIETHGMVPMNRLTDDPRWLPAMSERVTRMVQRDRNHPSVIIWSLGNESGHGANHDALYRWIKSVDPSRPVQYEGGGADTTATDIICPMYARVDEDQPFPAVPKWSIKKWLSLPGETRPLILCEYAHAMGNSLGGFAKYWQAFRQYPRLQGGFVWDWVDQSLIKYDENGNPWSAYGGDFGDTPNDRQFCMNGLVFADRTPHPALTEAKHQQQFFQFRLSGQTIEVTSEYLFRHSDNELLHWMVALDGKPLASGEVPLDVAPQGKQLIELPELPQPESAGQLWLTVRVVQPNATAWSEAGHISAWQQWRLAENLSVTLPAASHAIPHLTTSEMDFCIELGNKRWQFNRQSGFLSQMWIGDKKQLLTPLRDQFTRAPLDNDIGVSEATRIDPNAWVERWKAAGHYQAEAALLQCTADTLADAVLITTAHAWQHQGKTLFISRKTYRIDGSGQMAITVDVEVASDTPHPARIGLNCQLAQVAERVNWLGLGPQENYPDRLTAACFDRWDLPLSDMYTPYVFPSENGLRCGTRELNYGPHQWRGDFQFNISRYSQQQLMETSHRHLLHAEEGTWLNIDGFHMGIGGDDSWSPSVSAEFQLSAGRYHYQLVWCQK

As for `CC(C)(C)OC(=O)NCCCCCCN1C[C@H](O)[C@@H](O)[C@@H](O)[C@H]1CO` [Compound 20], 10900 nM corresponded to half-maximal inhibition in test [1] (IC50). The Ki turned out to be 2000 nM in test [1]; 2400 nM in test [2] (setting [9]); 4300 nM in test [3]; 3000 nM in test [4] (read-out: Ki β-glu/gal Abg, 37 °C, pH 7.0, substrate 4-nitrophenyl β-D-glucopyranoside).

With `CC(C)c1ccc(C(=O)NCCCCCCN2C[C@H](O)[C@@H](O)[C@@H](O)[C@H]2CO)cc1` [Compound 16], the Ki in test [2] worked out at 1300 nM; in test [3] it was 2600 nM; in test [4] it was 13000 nM.

Take `CCCCCCCCN[C@@H]1C=C(CO)[C@H](O)[C@H](O)[C@H]1O` [N-octyl-4-epi-β-valienamine]: the “β-galactosidase activity in brain after oral administration” value in test [5] was “enhancing β-galactosidase activity”.

Take `CN(C)c1ccc(C(=O)NCCCCCCN2C[C@H](O)[C@@H](O)[C@@H](O)[C@H]2CO)cc1` [Compound 18]: the “increase of relative enzyme activity of β-galactosidase mutant” value in test [6] (concentration 2 µM) came out at 4.8 fold. In addition, the Ki is 1100 nM in test [2] (setting [9]), 490 nM in test [3] and 3800 nM in test [4].

Take `O=C(NCCCCCCN1C[C@H](O)[C@@H](O)[C@@H](O)[C@H]1CO)c1cccnc1` [Compound 17]: in test [6], the “increase of enzyme activity of β-galactosidase mutant” value is given as “up to 5.5 fold”. Also, the Ki in test [2] (setting [9]) amounted to 830 nM; in test [3], 2200 nM; in test [4], 1500 nM.

Regarding `O=C(CCCc1ccc2ccc3cccc4ccc1c2c34)NCCCCCCN1C[C@H](O)[C@@H](O)[C@@H](O)C1CO` (stereo partly shown) [Compound 19], the Ki in test [2] was 250 nM; in test [3], 7000 nM; in test [4] it was 60 nM.

In turn, `O=C(NCCCCCCN1C[C@H](O)[C@@H](O)[C@@H](O)[C@H]1CO)OCc1ccccc1` [Compound 22] registered an IC50 in test [1] of 3260 nM. Also, the Ki in test [1] turned out to be 720 nM; in test [2] (setting [9]), 400 nM; in test [3], 2200 nM; in test [4], 6000 nM. For the same compound, the “increase of enzyme activity of β-galactosidase mutant” value in test [6] is reported as “up to 5.5 fold”.

Take `OC[C@H]1NC[C@H](O)[C@@H](O)[C@H]1O` [Compound 4, 1-Deoxygalactonojirimycin]: the tissue globotriaosylceramide levels result in test [7] is on record as “reduce tissue globotriaosylceramide levels”. Further, the “increase of α-galactosidase A levels” value in test [8] is 1.5 to 28 fold.
